# Source: patent US20190008973A1, “INTRALIPID-IODINE FOR IMAGING” (priority 2017, published 2019)
# Structures can show the parent of a compound that is named as a salt. Where two headings read alike, the source gives them in different places.
# Legend:
# [1] = system: spinal cord ischemia and reperfusion; conditions: intravenous; cited from earlier work
# [2] = system: PLA(2) and PLC; conditions: rat, in vivo; cited from earlier work
# [3] = system: free fatty acid efflux; conditions: cited from earlier work; for I/R-evoked FFA efflux: 20-min ischemia, 40 min reperfusion
# [4] = biological target: T1, N-methyl-D-aspartate receptor channels (Mus musculus, UniProt P35438); conditions: cited from earlier work
# T1 construct: cultured cortical neurons from the mouse; endogenous in cells; host or cells: cultured mouse cortical neurons
# [5] = system: lipid-dependent mitochondrial respiration (carnitine exchange); conditions: cited from earlier work
# [6] = system: propofol-mediated hypotension; conditions: cited from earlier work
# [7] = system: post operative delirium; test: Lipid Emulsion Treatment of post operative delirium/POCD, 4 case reports; format: in vivo, human; conditions: case 1, 60 min
# [8] = plasma-Intralipid mixture, n=3; cited from earlier work
# [9] = system: brachial plexus; conditions: in vivo; cited from earlier work
# [10] = system: brachial plexus; conditions: 30 ml; cited from earlier work
# [11] = system: total spinal anesthesia; conditions: in vivo; cited from earlier work
# [12] = system: total spinal anesthesia; conditions: in vivo; cited from earlier work; remark: listed apart in the source
# [13] = system: bupivacaine-induced asystole; conditions: cited from earlier work
# [14] = system: bupivacaine mortality; conditions: cited from earlier work
# [15] = system: spinal anesthesia; conditions: cited from earlier work
# [16] = system: brachial plexus; conditions: in vivo; cited from earlier work; remark: listed apart in the source
# [17] = system: bupivacaine cardiotoxicity; parameters: AUC of total bupivacaine, mean (standard deviation) / AUC of the lipid-un-entrapped bupivacaine portion: concentration or dose not given beside the values; conditions: cited from earlier work
# [18] = system: hippocampal slices; conditions: cited from earlier work
# [19] = system: fallopian tube and adnexal tissue; conditions: cited from earlier work
# [20] = biological target: T2, mitochondrial ATPase (Homo sapiens, UniProt P06576+P25705); conditions: cited from earlier work; for kind of inhibition: reciprocal plots
# T2 construct: mitochondrial ATPase prepared by the chloroform extraction method; from tissue; host or cells: mitochondria
# [21] = system: myocardial ischemia-reperfusion injury; conditions: cited from earlier work
# [22] = system: acetylcholinesterase (AChE) / neuronal degeneration; conditions: cited from earlier work; for serum AChE: rat, in vivo
# [23] = system: brachial plexus; conditions: 150 μg clonidine or 200 μg epinephrine with 0.25% bupivacaine; cited from earlier work
# [24] = system: soft tissue anesthesia (STA); conditions: in vivo; cited from earlier work
# [25] = system: post ischaemic stunned myocardium; conditions: dog, in vivo; cited from earlier work
# [26] = system: ischemia-reperfusion (IR) injury; conditions: cited from earlier work
# [27] = system: traumatic brain injury; conditions: cited from earlier work
# T2 sequence (P25705 44-553): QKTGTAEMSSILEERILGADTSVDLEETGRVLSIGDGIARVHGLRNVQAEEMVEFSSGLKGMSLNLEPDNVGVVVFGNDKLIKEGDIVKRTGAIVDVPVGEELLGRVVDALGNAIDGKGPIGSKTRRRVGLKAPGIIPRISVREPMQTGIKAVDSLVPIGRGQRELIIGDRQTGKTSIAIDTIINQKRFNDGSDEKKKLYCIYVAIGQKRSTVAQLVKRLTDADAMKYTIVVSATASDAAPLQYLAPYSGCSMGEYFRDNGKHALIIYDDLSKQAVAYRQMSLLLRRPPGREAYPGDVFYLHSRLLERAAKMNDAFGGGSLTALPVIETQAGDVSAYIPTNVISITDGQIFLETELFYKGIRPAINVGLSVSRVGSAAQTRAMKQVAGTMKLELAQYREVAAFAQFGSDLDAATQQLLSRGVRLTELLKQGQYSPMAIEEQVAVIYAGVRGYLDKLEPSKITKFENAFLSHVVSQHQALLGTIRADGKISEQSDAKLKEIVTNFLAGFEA
# T2 sequence (P06576 48-529): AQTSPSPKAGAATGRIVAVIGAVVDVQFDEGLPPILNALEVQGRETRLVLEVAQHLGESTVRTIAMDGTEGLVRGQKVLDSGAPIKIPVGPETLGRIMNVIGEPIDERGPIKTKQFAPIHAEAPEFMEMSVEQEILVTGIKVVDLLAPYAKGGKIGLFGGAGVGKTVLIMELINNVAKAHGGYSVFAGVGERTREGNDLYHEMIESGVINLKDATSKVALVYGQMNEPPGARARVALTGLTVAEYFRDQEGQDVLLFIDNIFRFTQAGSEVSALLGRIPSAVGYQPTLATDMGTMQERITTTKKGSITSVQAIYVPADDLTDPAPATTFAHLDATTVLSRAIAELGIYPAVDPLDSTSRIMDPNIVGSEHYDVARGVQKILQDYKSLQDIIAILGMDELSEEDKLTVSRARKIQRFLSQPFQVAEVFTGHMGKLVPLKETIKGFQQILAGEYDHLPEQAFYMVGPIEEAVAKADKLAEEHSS
# T2 sequence (P36542 26-298 partner): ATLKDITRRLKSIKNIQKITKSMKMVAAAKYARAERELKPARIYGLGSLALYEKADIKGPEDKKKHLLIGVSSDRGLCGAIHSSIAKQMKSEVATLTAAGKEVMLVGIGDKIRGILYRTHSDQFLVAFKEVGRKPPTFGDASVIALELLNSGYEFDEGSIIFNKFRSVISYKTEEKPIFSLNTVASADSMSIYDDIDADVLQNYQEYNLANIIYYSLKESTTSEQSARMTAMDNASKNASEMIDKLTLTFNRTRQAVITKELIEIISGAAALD
# T2 sequence (P30049 23-168 partner): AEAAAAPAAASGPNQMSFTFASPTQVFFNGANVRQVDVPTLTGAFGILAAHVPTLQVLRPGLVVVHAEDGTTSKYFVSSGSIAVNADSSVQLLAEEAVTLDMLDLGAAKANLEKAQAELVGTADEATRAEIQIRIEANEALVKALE
# T2 sequence (P56381 2-51 partner limits assumed): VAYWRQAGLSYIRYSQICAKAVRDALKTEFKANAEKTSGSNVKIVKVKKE
molecule,measurement,setting,value
CCCC(C)C1(CC)C(=O)NC(=S)NC1=O (stereo not drawn) [thiopental],injured animals,[1],100%
COc1ccc2c(c1)CC[C@@H]1[C@@H]2CC[C@]2(C)[C@@H](NCCCCCCN3C(=O)C=CC3=O)CC[C@@H]12 [U73122],FFA efflux during ischemia-reperfusion injury,[2],had no observed effect
Ryanodine,I/R-evoked FFA efflux,[3],significantly enhanced ischemia/reperfusion-elicited efflux of linoleic acid
DL-AP5,effect on emulsion-induced currents,[4],inhibited
CCOC(=O)[C@@H]1C2CCC(C[C@@H]1OC(=O)c1ccccc1)N2C (stereo partly drawn) [cocaethylene],lipid-dependent mitochondrial respiration,[5],inhibited
C1CCC[C@H]2CCCN3CC[C@@H](CCCCCC[C@@H]4CCCN5CC[C@@H](CC1)O[C@@H]45)O[C@@H]23 [Xestospongin C],I/R-evoked FFA efflux,[3],failed to affect I/R-evoked FFA efflux
O=C1CN(/N=C/c2ccc(-c3ccc([N+](=O)[O-])cc3)o2)C(O)=N1 [Dantrolene],I/R-evoked FFA efflux,[3],"significantly inhibited I/R-evoked release of docosahexaenoic, arachidonic, linoleic and oleic acids"
20% BSA,effect on propofol induced cortical burst suppression,[6]; EEG,−2+/−1%
Cc1ncc2n1-c1ccc(Cl)cc1C(c1ccccc1F)=NC2 [midazolam],agitation after conventional sedatives,[7],had not improved
C[N+](C)(C)CC[N+]1(C)Cc2c(Cl)c(Cl)c(Cl)c(Cl)c2C1 [chlorisondamine],lowering of MAP,[6]; 2.5 mg/kg IV,56+/−3%
CCCCN1CCCCC1C(=O)Nc1c(C)cccc1C (stereo not drawn) [bupivacaine],mean lipid:aqueous ratio of concentrations,[8],11.9+/−1.77
same,muscle relaxation judged as excellent,[9],30/49
same,duration of motor block,[10],12.94 h
same,duration of sensory block,[10],11.58 h
same,onset of motor block,[10],21.45 ± 4.45 min
same,onset of sensory block,[10],16.85 ± 6.67 min
same,further time to consciousness,[11],65 min
same,time to spontaneous respiration,[11],120 min
same,mean duration of action,[12],1.511 to 3 h
same,"concentration of bupivacaine in plasma, mean+/−SE",[13]; 30% Intralipid,212+/−45 micrograms per millilitre
same,median dose of bupivacaine producing asystole,[13]; after saline pretreatment,17.7 milligrams per kilogram
same,"concentration of bupivacaine in plasma, mean+/−SE",[13]; saline,93.3+/−7.6 micrograms per millilitre
same,dose of bupivacaine required to cause death in 50% of animals,[14]; resuscitation with 30% Intralipid,18.5 mg/kg
same,dose of bupivacaine required to cause death in 50% of animals,[14]; resuscitation with saline,12.5 mg/kg
same,Duration of procedures it is appropriate for,[15]; long acting spinal anesthetic,2 to 2.5 h
same,Onset,"[15]; spinal anesthetic, longer with isobaric forms",5 to 10 min
same,patients requiring supplementation,[16],9 of the 22
same,AUC of the lipid-un-entrapped bupivacaine portion,[17]; after Intralipid,97.0(14.5) mg·min/L
same,"AUC of total bupivacaine, mean (standard deviation)",[17]; after Intralipid,105.2(13.6) mg·min/L
same,un-entrapped AUC lower than total bupivacaine,[17]; after Intralipid,8%
same,"AUC of total bupivacaine, mean (standard deviation)",[17]; after Ringer's acetate,88.1(7.1) mg·min/L
"CCCCC/C=C\C/C=C\C/C=C\C/C=C\CCCC(=O)O [Arachidonic acid, 5,8,11,14-eicosateraenoic acid]",protection from glutamate and H(2)O(2) injury,[18]; 1-10 microM,dose dependently protected
"C[C@@H]1C[C@@H]([C@H](O)CC2CC(=O)NC(=O)C2)C(=O)[C@@H](C)C1 [CHX, cycloheximide]",effect on neuroprotection by arachidonic acid,"[18]; BADGE 100 microM, CHX 30 microM",completely abolished
"CNC(=O)c1c(I)c(NC(C)=O)c(I)c(C(=O)O)c1I.CNC[C@H](O)[C@@H](O)[C@H](O)[C@H](O)CO [Iothalamate meglumine 60%, iothalamate meglumine]",pathologic response in tube or peritoneal cavity,"[19]; rabbit, in vivo","mild inflammatory infiltrate, mucosal edema, giant cell reaction, and periovarian adhesions"
CCOC(=O)c1ccc(N)cc1 [benzocaine],inhibition of the enzyme,[20],inhibits the enzyme at all pH values
"CC(C)(c1ccc(OCC2CO2)cc1)c1ccc(OCC2CO2)cc1 (stereo not drawn) [BADGE, bisphenol A diglycidyl ether]",effect on neuroprotection by arachidonic acid,[18],completely abolished
"FC(F)OC(Cl)C(F)(F)F (stereo not drawn) [IS, isoflurane]",plasma lactate dehydrogenase,"[21]; 3 h after reperfusion, group C 676+/−82",456+/−58 U/L
same,plasma creatine kinase,"[21]; 3 h after reperfusion, group C 2373+/−529",1725+/−230 U/L
same,myocardial infarct size 3 h after reperfusion,[21]; group C 39%+/−6%,20%+/−8%
"CCOP(=S)(OCC)Oc1nc(Cl)c(Cl)cc1Cl [chlorpyriphos, Chlorpyriphos]",serum AChE,[22],inhibited AChE
CCN(CC)CC(=O)Nc1c(C)cccc1C [lidocaine],further time to consciousness,[11],80 min
same,time to spontaneous respiration,[11],45 min
same,kind of inhibition,[20],non-competitive
C/C=C(/C)C(=O)O[C@H]1C(C)=C2[C@H]([C@@H]1OC(=O)CCCCCCC)[C@@](C)(OC(C)=O)C[C@H](OC(=O)CCC)[C@@]1(O)[C@H]2OC(=O)[C@@]1(C)O [Thapsigargin],FFA efflux in the absence of ischemia,"[3]; rat, in vivo","elicited significant elevations in the efflux of myristic, arachidonic and linoleic acids"
CCCCOc1cc(C(=O)NCCN(CC)CC)c2ccccc2n1 [dibucaine],kind of inhibition,[20],non-competitive
"CNC(=O)c1c(I)c(NC(C)=O)c(I)c(C(=O)O)c1I.CNC[C@H](O)[C@@H](O)[C@H](O)[C@H](O)CO [iothalamate meglumine 30%, iothalamate meglumine]",pathologic response in tube or peritoneal cavity,"[19]; rabbit, in vivo",no pathologic response
"Clc1cccc(Cl)c1N=C1NCCN1 [clonidine, clonidine hydrochloride]",duration of block,[23],994.2 ± 34.2 min
CN1CCN(CCCN2c3ccccc3Sc3ccc(C(F)(F)F)cc32)CC1 [trifluoperazine],I/R-evoked FFA efflux,[3],very effective in suppressing ischemia/reperfusion evoked release of all six FFAs
"Cc1ccc(N(CC2=NCCN2)c2cccc(O)c2)cc1 [PM (OraVerse), phentolamine mesylate]",duration of residual STA,[24],significantly decrease the duration of residual STA
same,safety outcomes in school-based dental clinic,[24],improve safety outcomes
CNC1(c2ccccc2Cl)CCCCC1=O (stereo not drawn) [ketamine],effect on emulsion-induced currents,[4],inhibited
picrotoxin,effect on emulsion-induced currents,[4],not affected
CN1[C@H]2CC[C@@H]1[C@@H](C(=O)O)[C@@H](OC(=O)c1ccccc1)C2 [benzoylecgonine],lipid-dependent mitochondrial respiration,[5],not
"N[C@H](C(=O)O)c1ccc(O)cc1 [Oxfenicine, oxfenicine]",effect of pretreatment on benefit of Intralipid,[25],completely abolished
"O=C1O/C(=C/Br)CCC1c1cccc2ccccc12 (stereo not drawn) [BEL, bromoenol lactone]",FFA efflux during ischemia-reperfusion injury,[2],had only minimal effects on FFA efflux
"O=C(/C=C/c1ccc(O)c(O)c1)OCCc1ccccc1 [CAPE, caffeic acid phenethyl ester]",neuronal degeneration,[22]; histologic examination,significant effect on protection of neuronal degeneration
same,serum AChE,[22],inhibited AChE
O=C(CCCN1CCC(O)(c2ccc(Cl)cc2)CC1)c1ccc(F)cc1 [Haloperidol],agitation after conventional sedatives,[7],had not improved
Cn1cc(C2=C(c3ccc(Cl)cc3Cl)C(=O)NC2=O)c2ccccc21 [SB216763],cardioprotection in sham-operated hearts exposed to IR,[26]; 1% ILP 15 min,conferred cardioprotection
same,cardioprotection in hypertrophied myocardium,[26],failed to exert cardioprotection
CN(C)CCCN1c2ccccc2Sc2ccc(Cl)cc21 [chlorpromazine],kind of inhibition,[20],non-competitive
"CC(=O)N(CC(O)CO)c1c(I)c(C(=O)NCCO)c(I)c(C(=O)NCC(O)CO)c1I (stereo not drawn) [Ioxilan, ioxilan]",pathologic response in tube or peritoneal cavity,[19]; histology,no pathologic response
4-bromophenylacyl bromide [BPB],FFA efflux during ischemia-reperfusion injury,[2],significantly inhibited FFA efflux
conjugated linoleic acids [CLA],latency to find the hidden MWM platform,"[27]; CCI-injured, saline 30.7±5.5",66.8 ± 10.6 s
same,latency to find the hidden Morris Water Maze platform,"[27]; Sham, saline 8.8±1.7",40.3 ± 13.0 s
ecgonine,lipid-dependent mitochondrial respiration,[5],not
